Assay results published in patent US11453657B2 (GlaxoSmithKline Intellectual Property Development Limited, priority 2018, dated 2022).
Structures can show the parent of a compound that is named as a salt. Where two headings read alike, the source gives them in different places.

Test system: P. falciparum infected erythrocytes
Experiment: P. falciparum growth inhibition assay ([3H]hypoxanthine incorporation)
Format: cell-based, Plasmodium falciparum
Protocol: P. falciparum Growth Inhibition Assay.
The sensitivity of P. falciparum infected erythrocytes to the compound was determined in duplicate using the [3H]hypoxanthine incorporation method with an inoculum of 0.5% parasitemia (ring stage) and 2% hematocrit. The parasites were grown in RPMI 1640, 25 mM HEPES and supplemented with 5% Albumax. Plates are incubated at 37° C., 5% CO2, 5% O2, 90% N2. After 24 h of incubation, [3H]hypoxanthine is added and plates are incubated for another 24 h. After that period, plates are harvested on a glass fiber filter using a TOMTEC Cell harvester 96. Filters are dried and melt on scintillator sheets and the bound radioactivity is quantified by use of a Wallac Microbeta Trilux (Model 1450 LS—Perkin Elmer). IC50s are determined using Grafit 7 program (Grafit program; Erithacus Software, Horley, Surrey, United Kingdom).
Each example compound was tested generally in accordance with the above-mentioned assay and the PfIC50 value for each compound is reported in the Table below and according to the following: […]

[1] = Plasmodium falciparum, Erythrocyte, [3H]hypoxanthine incorporation, 0.5% parasitemia, 2% hematocrit, 48 h, read-out: PfIC50 Media
[2] = Plasmodium falciparum, Erythrocyte, read-out: average PfIC50
[3] = [3H]hypoxanthine incorporation, 0.5% parasitemia, 2% hematocrit, 48 h, read-out: PfIC50 Media
[4] = Plasmodium falciparum, Erythrocyte, hydrochloride salt, read-out: average PfIC50 of the hydrochloride salt

| Structure (SMILES) | IC50 [1] [µM] | IC50 [2] [µM] | further results |
| --- | --- | --- | --- |
| O=C(c1ccc(OC[C@@H](O)Cn2ncnn2)cc1)N1CC[C@H](c2ccc(F)cc2)C1 [Example 8, ((R)-3-(4-fluorophenyl)pyrrolidin-1-yl)(4-((S)-2-hydroxy-3-(2H-tetrazol-2-yl)propoxy)phenyl) methanone] | < 0.1 | 0.052 | – |
| CC(O)(COc1ccc(C(=O)N2CC[C@H](c3ccc(F)cc3)C2)cc1)Cn1cnnn1 (stereo partly drawn) [Example 10b, ((R)-3-(4-Fluorophenyl)pyrrolidin-1-yl)(4-(2-hydroxy-2-methyl-3-(1H-tetrazol-1-yl)propoxy)phenyl)methanone] | – | – | IC50 [3]: 1 to 5 µM |
| O=C(c1ccc(OCC(O)Cc2cscn2)cc1)N1CC[C@H](c2ccc(F)cc2)C1 (single isomer, unassigned) [Example 35a] | < 0.1 | ≤ 0.05 | – |
| O=C(c1ccc(OC[C@H](O)Cn2ncnn2)cc1)N1CCC(c2cccc(F)c2)C1 (single isomer, unassigned) [Example 41b] | 0.1 to 0.5 | – | – |
| O=C(c1ccc(OC[C@H](O)Cn2ncnn2)cc1)N1CCC(c2ccccc2F)C1 (single isomer, unassigned) [Example 40a] | < 0.1 | ≤ 0.05 | – |
| Cl.N[C@H](COc1ccc(C(=O)N2CC[C@@H](c3ccc(F)cc3)C2)cc1)Cn1ncnn1 [Example 51, (4-((S)-2-amino-3-(2H-tetrazol-2-yl)propoxy)phenyl)((S)-3-(4-fluorophenyl)pyrrolidin-1-yl)methanone, Hydrochloride] | – | – | IC50 [4]: > 5 µM |
| O=C(c1ccc(OC[C@@H](F)Cn2ncnn2)cc1)N1CC[C@H](c2ccc(F)cc2)C1 [Example 12] | < 0.1 | ≤ 0.05 | – |
| N[C@@H](COc1ccc(C(=O)N2CC[C@H](c3ccc(F)cc3)C2)cc1)Cn1ncnn1 [Example 45, (4-((R)-2-Amino-3-(2H-tetrazol-2-yl)propoxy)phenyl)((R)-3-(4-fluorophenyl)pyrrolidin-1-yl)methanone] | < 0.1 | 0.018 | IC50 (Plasmodium falciparum, Erythrocyte, hydrochloride salt of the example, same assay, read-out: PfIC50 Media (uM), (HCl)): < 0.1 µM; IC50 [4]: 0.03 µM |
| CC(O)(COc1ccc(C(=O)N2CC[C@H](c3ccc(F)cc3)C2)cc1)Cn1ncnn1 (single isomer, unassigned) [Example 9a] | 0.1 to 0.5 | – | – |
| N[C@H](COc1ccc(C(=O)N2CC[C@H](c3ccc(F)cc3)C2)cc1)Cn1ncnn1 [Example 49, (4-((S)-2-amino-3-(2H-tetrazol-2-yl)propoxy)phenyl)((R)-3-(4-fluorophenyl)pyrrolidin-1-yl)methanone, Hydrochloride] | 0.1 to 0.5 | – | IC50 [4]: 0.31 µM |
| N[C@@H](COc1ccc(C(=O)N2CC[C@H](c3ccc(F)cc3)C2)cc1)Cn1cccn1 [Example 55, (4-((R)-2-amino-3-(1H-pyrazol-1-yl)propoxy)phenyl)((R)-3-(4-fluorophenyl)pyrrolidin-1-yl)methanone, Hydrochloride] | 0.1 to 0.5 | – | – |
| O=C(c1ccc(OC[C@H](O)Cn2ccnc2)cc1)N1CC[C@H](c2ccc(F)cc2)C1 [Example 20, ((R)-3-(4-fluorophenyl)pyrrolidin-1-yl)(4-((R)-2-hydroxy-3-(1H-imidazol-1-yl)propoxy)phenyl)methanone] | < 0.1 | – | – |
| Cc1nnn(C[C@@H](O)COc2ccc(C(=O)N3CC[C@H](c4ccc(F)cc4)C3)cc2)n1 [Example 22, ((R)-3-(4-fluorophenyl)pyrrolidin-1-yl)(4-((R)-2-hydroxy-3-(5-methyl-2H-tetrazol-2-yl)propoxy)phenyl)methanone] | < 0.1 | – | – |
| N[C@@H](COc1ccc(C(=O)N2CC[C@@H](c3ccc(F)cc3)C2)cc1)Cn1ncnn1 [Example 50, (4-((R)-2-amino-3-(2H-tetrazol-2-yl)propoxy)phenyl)((S)-3-(4-fluorophenyl)pyrrolidin-1-yl)methanone, Hydrochloride] | 0.1 to 0.5 | – | IC50 [4]: 0.219 µM |
| N#Cc1ccc(C2CCN(C(=O)c3ccc(OC[C@H](O)Cn4ncnn4)cc3)C2)cc1 (single isomer, unassigned) [Example 43b] | – | – | IC50 [3]: 1 to 5 µM |
